Measurements reported in patent US20110281917A1, “Substituted Benzimidazoles for the Treatment of Astrocytomas” (priority 2009, published 2011).
pEC50: −log10 of the molar value.

Experiments:
[1] = system: VEGF-CHO cells induced angiogenesis; assay: Matrigel plug angiogenesis model with VEGF-CHO cells, hemoglobin by Drabkin's reagent; type: in vivo; conditions: mice, dosed days 1 and 4, plugs excised day 5
Excerpt: Due to the inhibition of VEGFR-2, RAF265 also has anti-angiogenic activity which may also provide a therapeutic benefit in treating neurofibromas. To confirm that RAF265 inhibits the growth of new blood vessels (i.e., angiogenesis) in vivo, mice were implanted with Matrigel® containing Chinese hamster ovary cells (CHO) overexpressing VEGF and then treated mice with a dose range of RAF265 or a vehicle control (days 1 and 4). In this model, VEGF expressed from the CHO cells induces angiogenesis within the Matrigel® plug. Plugs are excised on day 5 and assayed for hemoglobin using Drabkin's reagent, as a measure of the degree of angiogenesis.

[2] = system: ST88 cells; assay: Proliferation of ST88 cells; type: cell-based
Excerpt: (§1) Pathway inhibition and anti-proliferative activity of RAF265 in ST88 cells.

[3] = system: phospho-MEK; assay: phospho-MEK ELISA in ST88 cells; type: cell-based
Excerpt: as §1

[4] = system: phospho-ERK; assay: phospho-ERK ELISA in ST88 cells; type: cell-based
Excerpt: as §1

With Cn1c(Nc2ccc(C(F)(F)F)cc2)nc2cc(Oc3ccnc(-c4ncc(C(F)(F)F)[nH]4)c3)ccc21 [Compound of Example 1] the “dose of maximal suppression of hemoglobin content” value [1] was 50 mg/kg, the “hemoglobin content of Matrigel plug” value [1] was “dose-dependent decrease in hemoglobin content” and the pEC50 [2] was 6.68. The pEC50 [3] was 6.82 and the pEC50 [4] was 6.73.
